# From ChEMBL document CHEMBL1201862, “PubChem BioAssay data set” (2004)
#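 Tested at 5 concentrations; 48 h exposure; 96-well plates; endpoints linearly interpolated, else capped at highest concentration. GI50 = concentration required for 50% inhibition of growth.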 Activity calls are given as the source filed them. Rule as the data show it: active = GI50 up to about 1.1 µM and inactive = higher.
# Legend:
# Assay in all cases: NCI anticancer screen, dose series, 48 h
# 786-0 = system: 786-0
# ACHN = system: ACHN
# HT-29 = system: HT-29
# Hs-578T = system: Hs-578T
# LOX IMVI = system: LOX IMVI
# M14 = system: M14
# MOLT-4 = system: MOLT-4
# NCI-H23 = system: NCI-H23
# NCI-H460 = system: NCI-H460
# NCI-H522 = system: NCI-H522
# OVCAR-4 = system: OVCAR-4
# OVCAR-5 = system: OVCAR-5
# SF-268 = system: SF-268
# SN12C = system: SN12C
# T47D = system: T47D
# TK-10 = system: TK-10
# UACC-257 = system: UACC-257
# UACC-62 = system: UACC-62
# UO-31 = system: UO-31
# SNB-75 = system: SNB-75
SMILES,GI50 (786-0),GI50 (ACHN),GI50 (HT-29),GI50 (Hs-578T),GI50 (LOX IMVI),GI50 (M14),GI50 (MOLT-4),GI50 (NCI-H23),GI50 (NCI-H460),GI50 (NCI-H522),GI50 (OVCAR-4),GI50 (OVCAR-5),GI50 (SF-268),GI50 (SN12C),GI50 (T47D),GI50 (TK-10),GI50 (UACC-257),GI50 (UACC-62),GI50 (UO-31),GI50 (SNB-75)
O=C(O)c1ccc(/C=N/N=C2c3ccccc3-c3ccccc32)cc1,> 100 µM (inactive),48.3 µM (inactive),54.3 µM (inactive),13.7 µM (inactive),> 100 µM (inactive),67.1 µM (inactive),38.6 µM (inactive),53.8 µM (inactive),41.2 µM (inactive),60.7 µM (inactive),35.8 µM (inactive),50.2 µM (inactive),23.6 µM (inactive),31.5 µM (inactive),64 µM (inactive),66.1 µM (inactive),67.5 µM (inactive),61.8 µM (inactive),42 µM (inactive),–
[O-][n+]1onc2c1-c1nonc1CC2,43.7 µM (inactive),27.1 µM (inactive),35.5 µM (inactive),26.7 µM (inactive),22.4 µM (inactive),25.1 µM (inactive),19.2 µM (inactive),23.8 µM (inactive),54.2 µM (inactive),31 µM (inactive),30.3 µM (inactive),50.8 µM (inactive),36.5 µM (inactive),37.5 µM (inactive),83 µM (inactive),21.5 µM (inactive),18.5 µM (inactive),36.6 µM (inactive),48.6 µM (inactive),–
CN(C)CCNc1ccccn1,> 100 µM (inactive),> 100 µM (inactive),> 100 µM (inactive),> 100 µM (inactive),> 100 µM (inactive),> 100 µM (inactive),> 100 µM (inactive),> 100 µM (inactive),> 100 µM (inactive),> 100 µM (inactive),> 100 µM (inactive),> 100 µM (inactive),> 100 µM (inactive),> 100 µM (inactive),> 100 µM (inactive),> 100 µM (inactive),> 100 µM (inactive),> 100 µM (inactive),> 100 µM (inactive),–
CCOC(=O)Cn1sc2ncc([N+](=O)[O-])cc2c1=O,16.9 µM (inactive),15.9 µM (inactive),16.2 µM (inactive),41 µM (inactive),13.6 µM (inactive),–,2.86 µM (inactive),17.9 µM (inactive),17.1 µM (inactive),18.8 µM (inactive),18.8 µM (inactive),19.2 µM (inactive),24.5 µM (inactive),16.6 µM (inactive),16.5 µM (inactive),17.9 µM (inactive),17.1 µM (inactive),23 µM (inactive),10.1 µM (inactive),39.5 µM (inactive)
COC(=O)c1ccc(NCc2cc(O)c3ccccc3c2O)cc1,16.1 µM (inactive),10.8 µM (inactive),18.7 µM (inactive),37.7 µM (inactive),3.48 µM (inactive),–,2.81 µM (inactive),6.65 µM (inactive),7.31 µM (inactive),16.1 µM (inactive),12.4 µM (inactive),21.6 µM (inactive),22.4 µM (inactive),7.13 µM (inactive),5.12 µM (inactive),24.4 µM (inactive),7.87 µM (inactive),3.67 µM (inactive),13.1 µM (inactive),22.5 µM (inactive)
CC(C)=NNC1=NC(C)(C)P(=O)(NNc2ncccn2)S1 (stereo unspecified),> 100 µM (inactive),> 100 µM (inactive),> 100 µM (inactive),> 100 µM (inactive),–,> 100 µM (inactive),> 100 µM (inactive),> 100 µM (inactive),> 100 µM (inactive),> 100 µM (inactive),> 100 µM (inactive),> 100 µM (inactive),> 100 µM (inactive),–,> 100 µM (inactive),> 100 µM (inactive),> 100 µM (inactive),> 100 µM (inactive),> 100 µM (inactive),–
CC(=O)OCCOCn1cc(C=O)c2ccccc21,> 100 µM (inactive),> 100 µM (inactive),> 100 µM (inactive),> 100 µM (inactive),> 100 µM (inactive),> 100 µM (inactive),> 100 µM (inactive),> 100 µM (inactive),33.2 µM (inactive),49.3 µM (inactive),–,67.5 µM (inactive),> 100 µM (inactive),> 100 µM (inactive),> 100 µM (inactive),> 100 µM (inactive),> 100 µM (inactive),> 100 µM (inactive),> 100 µM (inactive),> 100 µM (inactive)
NNC(=O)CCCCCCCC(=O)O,> 100 µM (inactive),> 100 µM (inactive),> 100 µM (inactive),> 100 µM (inactive),> 100 µM (inactive),> 100 µM (inactive),> 100 µM (inactive),> 100 µM (inactive),> 100 µM (inactive),> 100 µM (inactive),> 100 µM (inactive),> 100 µM (inactive),–,> 100 µM (inactive),> 100 µM (inactive),> 100 µM (inactive),> 100 µM (inactive),> 100 µM (inactive),> 100 µM (inactive),> 100 µM (inactive)
N=C(N)N/N=C/c1c(-c2ccc(N)cc2)nc2sccn12,23.9 µM (inactive),26.9 µM (inactive),22.7 µM (inactive),31.3 µM (inactive),32.9 µM (inactive),24.2 µM (inactive),25.4 µM (inactive),28.1 µM (inactive),26.4 µM (inactive),26.5 µM (inactive),35.3 µM (inactive),21.4 µM (inactive),34.7 µM (inactive),21.3 µM (inactive),21.1 µM (inactive),20.9 µM (inactive),> 100 µM (inactive),> 100 µM (inactive),20 µM (inactive),–
CC(C)CC1C(=O)NCCC(NC(=O)C(Cc2ccc(OC(C)(C)C)cc2)NC(=O)OC(C)(C)C)C(=O)NC(Cc2ccccc2)C(=O)NC(Cc2ccccc2)NC1=O (stereo unspecified),1.71 µM (inactive),7.89 µM (inactive),3.67 µM (inactive),13.4 µM (inactive),4.6 µM (inactive),12.6 µM (inactive),1.51 µM (inactive),13.3 µM (inactive),2.96 µM (inactive),11.6 µM (inactive),14.9 µM (inactive),6.25 µM (inactive),4.51 µM (inactive),16.5 µM (inactive),3.69 µM (inactive),11.7 µM (inactive),12.1 µM (inactive),6.35 µM (inactive),> 100 µM (inactive),–
COC(=O)c1cnn2c1n[n+]([O-])c1ccccc12,> 100 µM (inactive),> 100 µM (inactive),> 100 µM (inactive),> 100 µM (inactive),> 100 µM (inactive),> 100 µM (inactive),> 100 µM (inactive),57 µM (inactive),–,> 100 µM (inactive),–,> 100 µM (inactive),> 100 µM (inactive),> 100 µM (inactive),> 100 µM (inactive),> 100 µM (inactive),> 100 µM (inactive),> 100 µM (inactive),37.4 µM (inactive),> 100 µM (inactive)
C=CC(C)(C)n1cc(C2=C(O)C(=O)C(c3cn(C(C)(C)C=C)c4ccccc34)=C(OC(C)=O)C2=O)c2ccccc21,1.47 µM (inactive),1.27 µM (inactive),0.807 µM (active),0.646 µM (active),0.508 µM (active),1.25 µM (inactive),0.475 µM (active),0.692 µM (active),0.592 µM (active),1.55 µM (inactive),1.32 µM (inactive),1.66 µM (inactive),0.655 µM (active),0.456 µM (active),1.68 µM (inactive),–,0.64 µM (active),0.571 µM (active),1.07 µM (active),0.419 µM (active)
Cc1cc(=O)oc2c(CN(CCCl)CCCl)c(O)ccc12,33.4 µM (inactive),13.6 µM (inactive),22.7 µM (inactive),72.3 µM (inactive),10.7 µM (inactive),39.8 µM (inactive),4.99 µM (inactive),43.3 µM (inactive),17.4 µM (inactive),14.5 µM (inactive),> 100 µM (inactive),> 100 µM (inactive),59.3 µM (inactive),20.7 µM (inactive),31.5 µM (inactive),–,> 100 µM (inactive),5.56 µM (inactive),41.8 µM (inactive),53.5 µM (inactive)
O=S(=O)(O)c1ccc(/N=N/c2ccc(/N=N/c3c(O)ccc4ccc(S(=O)(=O)O)cc34)cc2)cc1,> 100 µM (inactive),> 100 µM (inactive),> 100 µM (inactive),> 100 µM (inactive),–,> 100 µM (inactive),> 100 µM (inactive),> 100 µM (inactive),> 100 µM (inactive),> 100 µM (inactive),> 100 µM (inactive),> 100 µM (inactive),> 100 µM (inactive),> 100 µM (inactive),> 100 µM (inactive),> 100 µM (inactive),> 100 µM (inactive),> 100 µM (inactive),> 100 µM (inactive),–
CNC(=O)CCCNC(=O)CCCC(=O)N(C)C,> 100 µM (inactive),> 100 µM (inactive),> 100 µM (inactive),> 100 µM (inactive),> 100 µM (inactive),> 100 µM (inactive),> 100 µM (inactive),> 100 µM (inactive),> 100 µM (inactive),> 100 µM (inactive),–,> 100 µM (inactive),> 100 µM (inactive),> 100 µM (inactive),> 100 µM (inactive),> 100 µM (inactive),> 100 µM (inactive),> 100 µM (inactive),> 100 µM (inactive),> 100 µM (inactive)
